According to US20020090373A1, “ADAMTS polypeptides, nucleic acids encoding them, and uses thereof” (priority 2000, published 2002):
Blank lines part the entries; values can stand above or below the molecule they belong to.

Legend:
[1] = molecular target: T1, Recombinant human ADAMTS-SI (Homo sapiens, UniProt Q9P2N4); experiment: Western blot (anti-NITEGE neoepitope) of aggrecanase substrate cleavage by ADAMTS-SI ± compound I; format: biochemical; conditions: 1 μM compound I, 1 μM substrate, 18 hours at 37° C., FIG. 8
T1 construct: made in house
T1 sequence (Q9P2N4 288-1629 isoform Q9P2N4-1 limits assumed): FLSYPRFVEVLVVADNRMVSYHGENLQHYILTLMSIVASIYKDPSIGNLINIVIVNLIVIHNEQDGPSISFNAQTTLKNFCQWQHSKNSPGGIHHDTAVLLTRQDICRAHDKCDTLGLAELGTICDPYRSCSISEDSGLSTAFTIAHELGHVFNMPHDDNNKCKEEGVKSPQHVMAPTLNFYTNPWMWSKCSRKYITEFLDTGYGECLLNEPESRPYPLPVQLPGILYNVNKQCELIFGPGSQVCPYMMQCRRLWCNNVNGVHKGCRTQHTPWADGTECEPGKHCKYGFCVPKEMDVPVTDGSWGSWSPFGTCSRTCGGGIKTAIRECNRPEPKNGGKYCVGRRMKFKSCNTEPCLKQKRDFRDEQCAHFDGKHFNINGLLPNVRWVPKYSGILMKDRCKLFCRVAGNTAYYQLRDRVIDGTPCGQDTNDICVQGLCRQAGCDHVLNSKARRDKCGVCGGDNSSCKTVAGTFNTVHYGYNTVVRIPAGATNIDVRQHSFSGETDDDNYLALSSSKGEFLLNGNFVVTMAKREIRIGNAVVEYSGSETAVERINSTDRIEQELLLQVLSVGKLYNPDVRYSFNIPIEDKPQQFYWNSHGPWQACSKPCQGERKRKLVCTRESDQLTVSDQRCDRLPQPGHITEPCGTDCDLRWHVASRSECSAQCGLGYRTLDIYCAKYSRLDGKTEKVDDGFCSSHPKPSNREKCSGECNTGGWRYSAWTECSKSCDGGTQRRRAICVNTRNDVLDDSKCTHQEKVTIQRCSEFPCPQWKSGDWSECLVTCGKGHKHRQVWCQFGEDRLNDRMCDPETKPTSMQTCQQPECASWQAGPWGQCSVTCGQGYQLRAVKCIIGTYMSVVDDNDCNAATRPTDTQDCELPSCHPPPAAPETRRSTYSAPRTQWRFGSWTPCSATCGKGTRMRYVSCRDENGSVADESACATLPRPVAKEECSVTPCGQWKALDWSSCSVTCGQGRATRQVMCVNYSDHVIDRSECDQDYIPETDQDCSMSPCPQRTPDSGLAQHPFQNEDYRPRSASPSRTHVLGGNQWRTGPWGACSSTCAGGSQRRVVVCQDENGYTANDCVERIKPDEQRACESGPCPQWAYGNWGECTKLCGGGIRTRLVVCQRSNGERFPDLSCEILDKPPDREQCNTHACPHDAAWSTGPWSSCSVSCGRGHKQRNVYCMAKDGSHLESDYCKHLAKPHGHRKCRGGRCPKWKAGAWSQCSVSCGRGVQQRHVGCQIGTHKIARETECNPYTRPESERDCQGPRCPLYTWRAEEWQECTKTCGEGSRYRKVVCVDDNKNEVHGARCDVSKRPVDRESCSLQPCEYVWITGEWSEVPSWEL
Experimental: (§1) Recombinant human ADAMTS-SI (20 μl) and recombinant human ADAMTS-4 (MD Tortorella, Science, 284:1664) (20 μl) were incubated with 1 μM of aggrecanase substrate (aggrecan protein containing the interglobular domain (IGD)). The substrate is cleaved at the relevant aggrecanase site by aggrecanases such as ADAMTS-4. […] The aggrecanase substrate has been used to assess the activity of various aggrecanases, such as ADAMTS-4, and their inhibitors, such as compound I, shown below, and described in EP 1081137, published Mar. 7, 2001: [drawing 1]
(§2) Incubations were carried out in 20 μl TSC buffer (50 mM Tris, pH 7.5 100 mM NaCl, 10 mM CaCl2) with protease inhibitor cocktail (“Complete”, EDTA free from Roche: catalog number 1873580)±1 μM compound I, for 18 hours at 37° C. The reactions were stopped by the addition of EDTA to 10 mM final concentration. The reaction mixtures were prepared for SDS-PAGE by the addition of 40 μl 2× sample buffer (Novex) containing 0.5 M DTT and then separated on 4-20% Tris glycine gels (Novex). […]
(§3) Treatment of the aggrecan protein with aggrecanases results in the formation of a characteristic cleavage site in the IGD. […] The crude rabbit antiserum was affinity purified against the corresponding neoepitope sequence and absorbed against a read-through peptide to ensure specificity for the neoepitope sequence. […]

[2] = molecular target: T2, recombinant human ADAMTS-4 (Homo sapiens, UniProt O75173); experiment: Western blot (anti-NITEGE neoepitope) of aggrecanase substrate cleavage by ADAMTS-4 ± compound I; format: biochemical; conditions: 1 μM compound I, 1 μM substrate, 18 hours at 37° C., FIG. 8
T2 sequence (O75173 213-837): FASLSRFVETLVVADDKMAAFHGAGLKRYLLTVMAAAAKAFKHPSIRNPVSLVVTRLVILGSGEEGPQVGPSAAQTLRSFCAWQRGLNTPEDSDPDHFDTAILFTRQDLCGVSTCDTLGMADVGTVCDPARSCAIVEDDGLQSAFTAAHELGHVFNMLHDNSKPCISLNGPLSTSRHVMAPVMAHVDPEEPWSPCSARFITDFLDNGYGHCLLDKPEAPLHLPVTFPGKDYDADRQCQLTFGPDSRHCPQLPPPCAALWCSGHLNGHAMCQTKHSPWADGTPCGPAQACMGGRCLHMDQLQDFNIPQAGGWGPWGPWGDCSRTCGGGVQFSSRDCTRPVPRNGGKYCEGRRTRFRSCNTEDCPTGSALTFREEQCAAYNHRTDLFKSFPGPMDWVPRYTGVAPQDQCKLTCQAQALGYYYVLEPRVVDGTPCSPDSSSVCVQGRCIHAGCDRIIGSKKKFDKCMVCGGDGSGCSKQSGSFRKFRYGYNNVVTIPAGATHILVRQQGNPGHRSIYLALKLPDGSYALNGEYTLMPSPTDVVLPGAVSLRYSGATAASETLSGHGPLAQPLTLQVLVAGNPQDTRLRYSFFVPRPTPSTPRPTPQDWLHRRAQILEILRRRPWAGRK
Experimental: as §1, §2, §3

[3] = test system: IL-1 induced aggrecan degradation in human osteoarthritic cartilage explants; conditions: cited from earlier work
[4] = molecular target: aggrecanase activity secreted by human osteoarthritic cartilage; conditions: cited from earlier work
[5] = test system: aggrecan degradation induced by intraarticular injection of IL-1; conditions: hamsters, intraarticular injection of IL-1, 30 mg/kg p.o.; cited from earlier work
[6] = molecular target: aggrecanase substrate (aggrecan protein containing the interglobular domain (IGD)), uncleaved
[7] = test system: aggrecanase substrate (aggrecan protein containing the interglobular domain (IGD)); experiment: Cleavage of aggrecanase substrate by recombinant enzymes (anti-NITEGE Western blot); format: biochemical; conditions: 20 μl enzyme, 1 μM substrate, 18 hours at 37° C., FIG. 8
Experimental: as §1, §2, §3

inhibition of ADAMTS-SI aggrecanase activity (cleavage of aggrecanase substrate) [1]: blocked | inhibition of ADAMTS-4 aggrecanase activity (cleavage of aggrecanase substrate) [2]: blocked
Molecule: C[C@@]1(O)CCCN(S(=O)(=O)c2ccc(OCc3ccc(F)cc3Cl)cc2)[C@H]1C(=O)NO [compound I]
IC50 [3]: 8 nM | IC50 [4]: 4.1 nM | inhibition of aggrecan degradation [5]: 93 % inhibition

B1: recombinant human ADAMTS-4 (protein)
chain: T2 sequence (O75173 213-837)
cleavage of the aggrecanase substrate at the aggrecanase site (Western blot with anti-NITEGE neoepitope antibody) [6]: treatment of the substrate with both ADAMTS-4 and ADAMTS-SI resulted in cleavage at the previously characterized aggrecanase cleavage site | cleavage of aggrecanase substrate at aggrecanase site (NITEGE neoepitope) [7]: resulted in cleavage at the previously characterized aggrecanase cleavage site

B2: Recombinant human ADAMTS-SI (protein)
chain: T1 sequence (Q9P2N4 288-1629 isoform Q9P2N4-1 limits assumed)
cleavage of the aggrecanase substrate at the aggrecanase site (Western blot with anti-NITEGE neoepitope antibody) [6]: treatment of the substrate with both ADAMTS-4 and ADAMTS-SI resulted in cleavage at the previously characterized aggrecanase cleavage site
